Measurements: patent US20250312469A1 (CANGET BIOTEKPHARMA, priority 2024, published 2025)

Tests used:
[1] = PK after single oral dose in tumor bearing mice
USP2a = molecular target: T1, USP2a (Homo sapiens, UniProt O75604); assay: ProtoArray protein microarray probed with 3H-FL118; assay type: binding; design: purchased Invitrogen ProtoArray Human Protein Microarray v5.0; details: 3H-FL118 0.5 μM
T1 sequence (O75604 1-605): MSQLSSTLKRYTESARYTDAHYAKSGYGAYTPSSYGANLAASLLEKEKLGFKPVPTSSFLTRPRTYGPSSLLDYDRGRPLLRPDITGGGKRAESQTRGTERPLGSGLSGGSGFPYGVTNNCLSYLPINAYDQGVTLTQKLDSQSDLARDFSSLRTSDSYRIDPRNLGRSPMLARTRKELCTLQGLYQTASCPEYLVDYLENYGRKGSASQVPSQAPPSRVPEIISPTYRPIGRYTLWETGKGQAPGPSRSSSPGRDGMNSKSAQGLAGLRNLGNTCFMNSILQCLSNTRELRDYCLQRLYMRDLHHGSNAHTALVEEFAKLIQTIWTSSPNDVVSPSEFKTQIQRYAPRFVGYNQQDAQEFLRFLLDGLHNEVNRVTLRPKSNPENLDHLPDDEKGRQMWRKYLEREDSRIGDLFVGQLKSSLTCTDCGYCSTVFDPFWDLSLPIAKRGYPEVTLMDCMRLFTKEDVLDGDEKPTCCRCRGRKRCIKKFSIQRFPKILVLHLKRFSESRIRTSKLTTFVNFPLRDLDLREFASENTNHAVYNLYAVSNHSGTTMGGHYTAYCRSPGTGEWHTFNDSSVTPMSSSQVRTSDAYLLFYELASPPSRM
Description: (§1) The flask was then immersed in silicone oil bath at 180° C.-190° C. for 6 hours. The tritium gas was removed. The reaction mixture was dissolved in 1 mL of DMSO and back-exchanged 10× with 50% ethanol. Injected directly to CapCeLL PAK C-18 column (4.6×250 mm), mobile phase 30% CH3CN, 0.1% TFA, flow 1 mL/min, U.V. =200 nm, r.t. =40 min. After purification, total activity was 5 mCi (solid) with a specificity of 5.6 Ci/mmol at a radiochemical purity of >97% for ^3H-FL118. […] The flask was then immersed in silicone oil bath at 190° C. for 24 h. The tritium gas was removed. The reaction mixture was dissolved in 1 mL of DMSO and back-exchanged 10× with 50% ethanol and injected directly to CapCeLL Pak C-18 column (4.6×250 mm), mobile phase 30% CH3CN, 0.1% TFA, […], U.V. =200 nm, r.t. =40 min. After purification total activity was 5 mCi (solid) with a specificity of 16.5 Ci/mmol at a radiochemical purity of ≥81% for ^3H-FL118.
(§2) Use of ^3H-FL118 as a radioactive probe to search FL118-binding proteins through screening of human protein microarray (ProtoArray R with 9,400 human proteins, Invitrogen): The study process includes the following steps.
(§3) 1. Blocking the ProtoArray: (i) Immediately place the mailer containing the Human Protein Microarray v5.0 at 4° C. upon removal from storage at −20° C. and equilibrate the mailer at 4° C. for at least 15 minutes prior to use. (ii) Place Human Protein Microarrays with the barcode facing up in the bottom of a 4-chamber incubation tray such that the barcode end of the microarray is near the tray end containing an indented numeral. […] Avoid pipetting buffer directly onto the array surface. (iv) Incubate the tray for 1 hour at 4° C. on a shaker set at 50 rpm (circular shaking). (v) After incubation, remove Protein Microarrays from FL118 Assay Buffer. To remove array from the 4-chamber incubation tray, insert the tip of forceps into the indented numeral end and gently pry the array upward. Using a gloved hand, pick up the microarray by holding the array by its edges only. Tap to remove excess liquid from slide surface. (vi) Proceed immediately to Probing the Array.
(§4) 2. Probing the ProtoArray: (i) Place each ProtoArray horizontally in a separate sterile 50 mL conical tube with about ⅓ of the array extended outside of the tube. The barcoded end of the array should protrude from the tube (face up). (ii) For each ProtoArray, add 100 μL of probing mixture including ^3H-FL118 (final concentration of ^3H-FL118 at 0.1 μM and 0.5 μM, respectively on different ProtoArray) and the positional mapping reagent ^3H-estradiol and pipet the mixture gently onto the surface of the ProtoArray. (iii) Gently place a coverslip over the surface of the ProtoArray using forceps to avoid capturing bubbles. […]

UbE2T = molecular target: T2, UbE2T (Homo sapiens, UniProt Q9NPD8); assay: ProtoArray protein microarray probed with 3H-FL118; assay type: binding; design: purchased Invitrogen ProtoArray Human Protein Microarray v5.0; details: 3H-FL118 0.5 μM
T2 sequence (Q9NPD8 1-197): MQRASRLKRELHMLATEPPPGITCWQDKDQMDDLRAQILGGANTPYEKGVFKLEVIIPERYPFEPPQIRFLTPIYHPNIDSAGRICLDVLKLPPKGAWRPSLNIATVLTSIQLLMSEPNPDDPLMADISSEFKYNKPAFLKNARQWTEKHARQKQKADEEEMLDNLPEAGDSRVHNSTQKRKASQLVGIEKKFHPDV
Description: as §1, §2, §3, §4

[2] = HT29 tumor, single oral dose […]
[3] = SW620 tumor, single oral dose […]
[4] = mouse plasma, single oral dose […]

SMILES: CCC1(O)C(=O)OCc2c1cc1n(c2=O)Cc2cc3cc4c(cc3nc2-1)OCO4 (stereo not shown) [FL118]
- Cl [1, 2]: 8,440 g/hr/kg
- Tmax [1, 2]: 1.00 h
- VD [1, 2]: 51,700 g/kg
- t1/2 [1, 2]: 4.24 h
- Cl ([1]; HT29 tumor, p.o. […]): 8,440 g/hr/kg
- VD ([1]; HT29 tumor, p.o. […]): 51,700 g/kg
- Cl [1, 3]: 6,710 g/hr/kg
- Tmax [1, 3]: 1.00 h
- VD [1, 3]: 28,900 g/kg
- t1/2 [1, 3]: 2.99 h
- Cl ([1]; SW620 tumor, p.o. […]): 6,710 g/hr/kg
- VD ([1]; SW620 tumor, p.o. […]): 28,900 g/kg
- concentration that can be reached in cancer cells ([1]; from the PK studies): ≤ 25 nM
- Cl [1, 4]: 17,000 mL/hr/kg
- Tmax [1, 4]: 0.500 h
- VD [1, 4]: 126,000 mL/kg
- t1/2 [1, 4]: 5.12 h
- FL118 concentration, individual mice ([1]; plasma, 1.0 h, single oral dose […]): 19.1 ng/mL
- FL118 concentration, individual mice ([1]; plasma, 4.0 h, single oral dose […]): 4.78 ng/mL
- Cl ([1]; plasma, p.o. […]): 17,000 mL/hr/kg
- VD ([1]; plasma, p.o. […]): 126,000 mL/kg
- Signal used (USP2a): 1959 3H counts per min
- Z-Score (USP2a): 3.7
- Signal used (UbE2T): 1812 3H counts per min
- Z-Score (UbE2T): 3.2
